Results on 3 molecules are retold here after patent US11098040B2, “Compounds and methods of use” (Ferro Therapeutics, Inc., priority 2018, dated 2021).

Structures are written as SMILES. Where two headings read alike, the source gives them in different places. A value given as a limit tells only on which side of the number the result lay.

In data set [1] the test system is SJSA-1. The experiment in a line: Cell proliferation (Alamar Blue) assay, SJSA-1 osteosarcoma, with/without ferrostatin. It is filed as cell-based, human. The conditions noted are these: Homo sapiens. The method, boiled down:
(§1)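 Cells seeded at 5000/well, 16-24 h, then exposed 24 h at 37° C to compound, 10-0.0005 μM in 3-fold dilutions, 1% DMSO final. Alamar Blue fluorescence (ex 540/em 590 nm) read after 1.5 h; IC50 from variable-slope sigmoidal fit.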
(The colour change of resazurin is a common sign of viable cells or microbes.)

For data set [2], the system named is A431. The experiment in a line: Cell proliferation (Alamar Blue) assay, A431. Format: cell-based. The conditions noted are these: Homo sapiens, A-431; Cell Line A431. The protocol:
Cells (SJSA-1, 786-O and A431) were seeded (5000 cells/100 μL/well) in 96-well tissue culture plate and incubated at 37° C./5% CO2 for 16-24 hours. The cells were then treated with compounds (25 μL of 5×). The compound concentrations were 10-0.0005 μM prepared in 3-fold serial dilutions with final DMSO concentration of 1%. The plates were then incubated for 24 h at 37° C./5% CO2 in a moist environment. Then Alamar Blue™ reagent (final concentration 1×-12.5 μL) was added to each well and incubated for 1.5 hours at 37° C./5% CO2. The plates were read on fluorescence reader at 540 nm excitation and 590 nm emission wavelengths. The IC50 values were subsequently determined using a sigmoidal dose-response curve (variable slope) in GraphPad Prism® 5 software.
The cell proliferation assays for the compounds shown Table 25 was performed according to the protocols described herein, including Examples 4 and 6.

Data set [3] has as its system 786-O. Nature of the data set: Cell proliferation (Alamar Blue) assay, 786-O renal cell carcinoma, with/without ferrostatin. Format: cell-based. The note with it: Homo sapiens. In outline: as §1
A short description of data set [4]: PK profile, IV plasma concentration and PK parameters. The note with it: Balb/C nude, mouse, iv, 5 mg/kg, 30% Kolliphore EL with 1% poloxamar 407 in water; for AUC(0-t): read-out: AUC0-t; for AUC(0-inf): read-out: AUC0-∞. It is filed as in vivo. The protocol:
The PK profiles of compounds 148, 149, 150, 156 and 169 are shown below. Compound 156 was formulated in 30% Kolliphor EL (Cremophor EL) in water and compounds 148, 149, 150 and 169 were formulated in 30% Kolliphore EL with 1% poloxamar 407 in water. All compounds were dosed at 5 mg/kg. Blood samples were collected at various time points and analyzed using the method described above.

Where [5] appears, read: SJSA-1, Cell Line SJSA-1, read-out: IC50.
The mark [6] stands for this setting: 786-0, Cell Line 786-O, read-out: IC50.

For orientation: IC50 means the concentration that inhibits the measured activity by half. By Cmax is commonly meant the highest concentration seen after dosing. Broadly, the clearance is a measure of how efficiently the substance is removed, as volume per time. Low readings indicate inefficient removal, high ones efficient removal. One may read the half-life as the time needed for the level to fall by half in the phase considered. Read a high half-life as slow loss. Consider `C#CC(=O)N1[C@@H](CCCC)Cc2c([nH]c3ccccc23)[C@@H]1c1ccc(NC23CC4CC(CC(C4)C2)C3)cc1` [Compound 148, 1-((1 S,3S)-1-(4-(((3R,5R,7R)-adamantan-1-yl)amino)phenyl)-3-butyl-1,3,4,9-tetrahydro-2H-pyrido[3,4-b]indol-2-yl)prop-2-yn-1-one], for which the IC50 in data set [1] (setting [5]) was 0.008 µM. The same molecule came in with an IC50 in data set [2] of 3600 nM. For the same molecule, the 50% inhibitory concentration (IC50) in data set [3] (setting [6]) worked out at 0.006 µM. In addition, in data set [4], the C0 came out at 40.6 µg/mL, the highest level (Cmax) was 33 µg/mL, the clearance turned out to be 0.287 L/h/kg and the AUC(0-t) turned out to be 17.2 µg·h/mL. The AUC(0-inf) in data set [4] was determined as 17.4 µg·h/mL. The Vd in data set [4] (read-out: Vd) turned out to be 2.39 L/kg. In data set [4] (read-out: Vss), the Vd is 0.47 L/kg. Further, in data set [4] (time points considered 4-24 h), the half-life was 5.76 h.
Consider `CCCC[C@H]1Cc2c([nH]c3ccccc23)[C@H](c2ccc(S(=O)(=O)NC3CC3)cc2F)N1C(=O)CCl` [Compound 169, 4-((1S,3S)-3-butyl-2-(2-chloroacetyl)-2,3,4,9-tetrahydro-1H-pyrido[3,4-b]indol-1-yl)-N-cyclopropyl-3-fluorobenzenesulfonamide], for which the IC50 in data set [1] (SJSA-1, 24 h, Alamar Blue, 24 h, 2 μM ferrostatin, read-out: SJSA-1 (IC50, μM) 2 μM Ferrostatin) was more than 10 µM; in data set [1] (SJSA-1, 24 h, Alamar Blue, 24 h, without ferrostatin, read-out: SJSA-1 (IC50, μM) Without Ferrostatin) it was 0.001 µM; in data set [1] (setting [5]), 0.001 µM; in data set [2], 3900 nM; in data set [3] (786-0, 24 h, Alamar Blue, 24 h, 2 μM ferrostatin, read-out: 786-O (IC50, μM) 2 μM Ferrostatin), 4.96 µM; in data set [3] (786-0, 24 h, Alamar Blue, 24 h, without ferrostatin, read-out: 786-O (IC50, μM) Without Ferrostatin) it was 0.003 µM. In addition, the IC50 in data set [3] (setting [6]) was found to be 0.003 µM. In data set [4], this molecule displayed a C0 of 5.38 µg/mL. Also, the Cmax in data set [4] came out at 2.22 µg/mL. The same molecule showed a clearance in data set [4] of 6.54 L/h/kg. Besides, the AUC(0-t) in data set [4] stood at 0.76 µg·h/mL. Besides, the AUC(0-inf) in data set [4] turned out to be 0.762 µg·h/mL. Moreover, the Vd in data set [4] (read-out: Vd) was 2.39 L/kg; in data set [4] (read-out: Vss), 0.98 L/kg. For the same molecule, the half-life in data set [4] (time points considered 0.25-2 h (1 h excluded)) was 0.25 h.
For `CCCC[C@H]1Cc2c([nH]c3ccccc23)[C@H](c2ccc(NC34CC5CC(CC(C5)C3)C4)cc2)N1C(=O)CCl` [Compound 149, 1-((1S,3S)-1-(4-(((3R,5R,7R)-adamantan-1-yl)amino)phenyl)-3-butyl-1,3,4,9-tetrahydro-2H-pyrido[3,4-b]indol-2-yl)-2-chloroethan-1-one], the 50% inhibitory concentration (IC50) in data set [1] (setting [5]) was 0.002 µM. In data set [2], this molecule gave an IC50 of 3800 nM. Also, in data set [3] (setting [6]), the 50% inhibitory concentration (IC50) was 0.001 µM. For the same molecule, in data set [4], the C0 is 29.4 µg/mL, the Cmax worked out at 22 µg/mL, the clearance worked out at 0.78 L/h/kg and the AUC(0-t) amounted to 6.54 µg·h/mL. Moreover, in data set [4], the AUC(0-inf) was 6.55 µg·h/mL. Further, the Vd in data set [4] (read-out: Vd) turned out to be 2.34 L/kg. Also, the Vd in data set [4] (read-out: Vss) amounted to 0.53 L/kg. In addition, the half-life in data set [4] (time points considered 2-8 h) was 2.12 h.
